The results in this text go back to patent publication US20250230147A1, “LACTAMS AS CBL-B INHIBITORS” (Genentech, Inc., priority 2021, published 2025).

Test [1] addresses Cbl-b (Homo sapiens (Human), UniProt Q13191). The test can be described thus: Cbl-b LCK Ub TR-FRET assay (Cbl-b Lck HTRF). Format: biochemical. A digest of the protocol: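 Biotin-Cbl-b preincubated with compound (10-point 3-fold series) 60 min, then His-LCK with 1 mM ATP (2× mixture) added for 90 min at room temperature. Ubiquitination detected by TR-FRET using HA-ubiquitin/UBE2D2 adduct, anti-HA-D2 and streptavidin-Eu; IC50 normalised to no-LCK and DMSO controls.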

In test [2] the target is c-Cbl (Homo sapiens (Human), UniProt P22681). In words: C-Cbl LCK Ub TR-FRET assay (c-cbl Lck HTRF). It is filed as biochemical. To be noted: for (fold-selectivity): C-cbl Lck HTRF IC50 relative to Cbl-b Lck HTRF IC50. A digest of the protocol:
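Detection reagents added, brief spin, 20 min RT. IC50 fit normalized to no-LCK (low) and DMSO (high) controls.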

Chain of c-Cbl (P22681 47-435): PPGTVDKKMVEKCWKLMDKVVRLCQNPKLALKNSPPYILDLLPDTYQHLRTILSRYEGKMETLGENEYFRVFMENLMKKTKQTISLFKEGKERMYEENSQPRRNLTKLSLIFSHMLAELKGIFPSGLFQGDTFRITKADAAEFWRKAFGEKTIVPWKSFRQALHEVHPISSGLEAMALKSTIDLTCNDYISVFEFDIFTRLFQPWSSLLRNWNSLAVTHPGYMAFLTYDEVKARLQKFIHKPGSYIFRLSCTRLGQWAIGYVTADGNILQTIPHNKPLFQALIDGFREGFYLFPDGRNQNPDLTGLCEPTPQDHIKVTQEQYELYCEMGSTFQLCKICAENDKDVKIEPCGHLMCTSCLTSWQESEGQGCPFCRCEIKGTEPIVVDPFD
Chain of Cbl-b (Q13191 40-426): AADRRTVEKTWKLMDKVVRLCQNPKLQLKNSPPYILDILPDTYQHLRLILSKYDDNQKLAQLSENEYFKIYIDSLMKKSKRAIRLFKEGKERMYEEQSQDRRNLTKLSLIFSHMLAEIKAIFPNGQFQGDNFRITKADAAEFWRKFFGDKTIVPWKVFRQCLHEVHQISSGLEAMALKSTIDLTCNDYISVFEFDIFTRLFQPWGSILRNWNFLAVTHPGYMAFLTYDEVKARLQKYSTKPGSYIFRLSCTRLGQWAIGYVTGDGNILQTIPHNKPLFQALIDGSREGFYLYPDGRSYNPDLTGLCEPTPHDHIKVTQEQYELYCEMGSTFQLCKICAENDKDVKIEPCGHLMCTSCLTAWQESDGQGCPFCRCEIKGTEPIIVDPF

For `Cn1cnnc1CC1(c2cccc(N3Cc4c(cc(CNCC(C)(C)C)cc4C(F)(F)F)C3=O)c2)CC(F)(F)C1` [Compound 363, 2-(3-(3,3-difluoro-1-((4-methyl-4H-1,2,4-triazol-3-yl)methyl)cyclobutyl)phenyl)-6-((neopentylamino)methyl)-4-(trifluoromethyl)isoindolin-1-one], the IC50 was determined as 13 nM in test [1] and 9.6 nM in test [2]. For the same molecule, the “(fold-selectivity)” value in test [2] is “(0.75x)”.
The molecule `Cn1cnnc1[C@H](F)C1(c2cccc(N3Cc4c(cc(CNC5(C)CC5)cc4C(F)(F)F)C3=O)c2)COC1` [Compound 229, (R)-2-(3-(3-(fluoro(4-methyl-4H-1,2,4-triazol-3-yl)methyl)oxetan-3-yl)phenyl)-6-(((1-methylcyclopropyl)amino)methyl)-4-(trifluoromethyl)isoindolin-1-one] registered an IC50 in test [1] of 12 nM. Moreover, in test [2], half-maximal inhibition (IC50) was put at 10 nM and the “(fold-selectivity)” value is listed as “(0.83x)”.
In the same order, the values of `CC(C)[C@@H]1CN(Cc2cc3c(c(C(F)(F)F)c2)CN(c2cccc(C4([C@@H](F)c5nncn5C)COC4)c2)C3=O)CCN1` [Compound 92] are 20 nM, 24 nM and 1.2x.
In test [1], `Cn1cnnc1CC1(c2cc(NCC(N)=O)nc(N3Cc4c(cccc4C(F)(F)F)C3=O)c2)COC1` [Compound 491, 2-((4-(3-((4-methyl-4H-1,2,4-triazol-3-yl)methyl)oxetan-3-yl)-6-(1-oxo-4-(trifluoromethyl)isoindolin-2-yl)pyridin-2-yl)amino)acetamide] displayed an IC50 of 8600 nM. In test [2], inhibition was half-maximal at 20000 nM (IC50) and the “(fold-selectivity)” value is on record as “(2.3x)”.
As to `CCc1cccc2c1CN(c1cccc(C3([C@@H](F)c4nncn4C)COC3)c1)C2=O` [Compound 209], the IC50 in test [1] is 1100 nM; in test [2], 1900 nM. Moreover, in test [2], the “(fold-selectivity)” value amounted to 1.7x.
In the same order, the values of `Cn1cnnc1CC1(c2cccc(N3Cc4c(cc(C5CCNC5)cc4C(F)(F)F)C3=O)c2)COC1.O=CO` (racemic) [Compound 50, (±)-2-(3-(3-((4-methyl-4H-1,2,4-triazol-3-yl)methyl)oxetan-3-yl)phenyl)-6-(pyrrolidin-3-yl)-4-(trifluoromethyl)isoindolin-1-one formate] are 54 nM, 90 nM and 1.7x.
Turning to `Cn1cnnc1CC1(c2cc(NC3CCCC3)nc(N3Cc4c(cccc4C(F)(F)F)C3=O)c2)CCC1` [Compound 296, 2-(6-(cyclopentylamino)-4-(1-((4-methyl-4H-1,2,4-triazol-3-yl)methyl)cyclobutyl)pyridin-2-yl)-4-(trifluoromethyl)isoindolin-1-one], the IC50 in test [1] was found to be 440 nM. In addition, in test [2], the IC50 stood at 2500 nM and the “(fold-selectivity)” value is given as “(5.7x)”.
The like results for `CC(C)[C@H]1CN(C)CCN1Cc1cc2c(c(C(F)(F)F)c1)CN(c1cccc(C3(Cc4nncn4C)COC3)c1)C2=O` [Compound 407, (S)-6-((2-isopropyl-4-methylpiperazin-1-yl)methyl)-2-(3-(3-((4-methyl-4H-1,2,4-triazol-3-yl)methyl)oxetan-3-yl)phenyl)-4-(trifluoromethyl)isoindolin-1-one] were, in that order, 7.1 nM, 5.7 nM and “(0.80x)”.
The like results for `Cn1cnnc1[C@H](F)C1(c2cccc(N3Cc4c(Cl)cccc4C3=O)c2)COC1` [Compound 204, (R)-4-chloro-2-(3-(3-(fluoro(4-methyl-4H-1,2,4-triazol-3-yl)methyl)oxetan-3-yl)phenyl)isoindolin-1-one] were, in that order, 210 nM, 660 nM and 3.1x.
